In PubChem BioAssay (NCI):
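48-hour exposure; five concentrations; linearly interpolated endpoints. TGI: concentration producing complete growth inhibition.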

Columns and labels:
Experiment in all cases: DTP human tumour cell line panel, 48 h
[1] = test system: 786-0 renal
[2] = test system: A498 renal
[3] = test system: A549 NSCLC
[4] = test system: ACHN renal
[5] = test system: BT-549 breast
[6] = test system: CAKI-1 renal
[7] = test system: CCRF-CEM leukemia
[8] = test system: COLO 205 colon
[9] = test system: DU-145 prostate
[10] = test system: EKVX NSCLC
[11] = test system: HCC-2998 colon
[12] = test system: HCT-116 colon
[13] = test system: HCT-15 colon
[14] = test system: HL-60(TB) leukemia
[15] = test system: HOP-62 NSCLC
[16] = test system: HOP-92 NSCLC
[17] = test system: HS 578T breast
[18] = test system: HT29 colon
[19] = test system: IGROV1 ovarian
[20] = test system: K-562 leukemia
[21] = test system: KM12 colon
[22] = test system: LOX IMVI melanoma
[23] = test system: M14 melanoma
[24] = test system: MCF7 breast
[25] = test system: MDA-MB-231 breast
[26] = test system: MDA-MB-435
[27] = test system: MDA-N
[28] = test system: MOLT-4 leukemia
[29] = test system: NCI-H226 lung
[30] = test system: NCI-H23 lung
[31] = test system: NCI-H460 lung
[32] = test system: NCI-H522 lung
[33] = test system: NCI/ADR-RES ovarian
[34] = test system: OVCAR-3 ovarian
[35] = test system: OVCAR-8 ovarian
[36] = test system: PC-3 prostate
[37] = test system: RPMI-8226 leukemia
[38] = test system: RXF 393 renal
[39] = test system: SF-268 CNS
[40] = test system: SF-295 CNS
[41] = test system: SF-539 CNS
[42] = test system: SK-MEL-2 melanoma
[43] = test system: SK-MEL-28 melanoma
[44] = test system: SK-MEL-5 melanoma
[45] = test system: SK-OV-3 ovarian
[46] = test system: SN12C renal
[47] = test system: SNB-19 CNS
[48] = test system: SNB-75 CNS
[49] = test system: SR leukemia
[50] = test system: SW-620 colon
[51] = test system: T-47D breast
[52] = test system: TK-10 renal
[53] = test system: U251 CNS
[54] = test system: UACC-257 melanoma
[55] = test system: UACC-62 melanoma
[56] = test system: UO-31 renal
[57] = test system: MALME-3M melanoma
[58] = test system: OVCAR-4 ovarian
[59] = test system: OVCAR-5 ovarian

Compound `CCOC(=O)[C@@H]1ON2OC(OC3CCCC3(c3ccccc3)c3ccccc3)C(OC(C)=O)[C@H]3OC(=O)[C@@H]1C32` (some centres undefined) has a TGI [1] of over 100 µM, a TGI [2] of over 100 µM and a TGI [3] of over 100 µM. The TGI [4] was 73.2 µM, the TGI [5] was over 100 µM and the TGI [6] was over 100 µM. For the same compound, the TGI [7] was over 100 µM, the TGI [8] was over 100 µM and the TGI [9] was over 100 µM. For the same compound, the TGI [10] was over 100 µM, the TGI [11] was over 100 µM and the TGI [12] was over 100 µM. The TGI [13] was over 100 µM, the TGI [14] was over 100 µM and the TGI [15] was over 100 µM. The TGI [16] was over 100 µM, the TGI [17] was over 100 µM and the TGI [18] was over 100 µM. For the same compound, the TGI [19] was over 100 µM, the TGI [20] was over 100 µM and the TGI [21] was over 100 µM. For the same compound, the TGI [22] was 60.3 µM, the TGI [23] was over 100 µM and the TGI [24] was 50.4 µM. The TGI [25] was over 100 µM, the TGI [26] was over 100 µM and the TGI [27] was over 100 µM. The TGI [28] was over 100 µM, the TGI [29] was over 100 µM and the TGI [30] was over 100 µM. For the same compound, the TGI [31] was over 100 µM, the TGI [32] was 72.2 µM and the TGI [33] was over 100 µM. It also gave a TGI [34] of over 100 µM, a TGI [35] of over 100 µM and a TGI [36] of over 100 µM. It also gave a TGI [37] of over 100 µM, a TGI [38] of 84.2 µM and a TGI [39] of over 100 µM. For the same compound, the TGI [40] was over 100 µM, the TGI [41] was over 100 µM and the TGI [42] was over 100 µM. It also gave a TGI [43] of over 100 µM, a TGI [44] of over 100 µM and a TGI [45] of over 100 µM. The TGI [46] was over 100 µM, the TGI [47] was over 100 µM and the TGI [48] was over 100 µM. It also gave a TGI [49] of over 100 µM, a TGI [50] of over 100 µM and a TGI [51] of over 100 µM. For the same compound, the TGI [52] was over 100 µM, the TGI [53] was over 100 µM and the TGI [54] was over 100 µM. It also gave a TGI [55] of over 100 µM and a TGI [56] of over 100 µM.

`O=c1ccc2ccc(O)cc2o1` gave a TGI [1] of over 100 µM, a TGI [2] of over 100 µM and a TGI [3] of over 100 µM. The TGI [4] was over 100 µM, the TGI [5] was over 100 µM and the TGI [6] was over 100 µM. For the same compound, the TGI [7] was over 100 µM, the TGI [8] was over 100 µM and the TGI [9] was over 100 µM. It also gave a TGI [10] of over 100 µM, a TGI [11] of over 100 µM and a TGI [12] of over 100 µM. It also gave a TGI [13] of over 100 µM, a TGI [14] of over 100 µM and a TGI [15] of over 100 µM. It also gave a TGI [16] of over 100 µM, a TGI [17] of over 100 µM and a TGI [18] of over 100 µM. For the same compound, the TGI [19] was over 100 µM, the TGI [21] was over 100 µM and the TGI [22] was over 100 µM. For the same compound, the TGI [23] was over 100 µM, the TGI [57] was over 100 µM and the TGI [24] was over 100 µM. The TGI [25] was over 100 µM, the TGI [26] was over 100 µM and the TGI [27] was over 100 µM. The TGI [28] was over 100 µM, the TGI [29] was over 100 µM and the TGI [30] was over 100 µM. It also gave a TGI [32] of over 100 µM, a TGI [33] of over 100 µM and a TGI [34] of over 100 µM. For the same compound, the TGI [58] was over 100 µM, the TGI [59] was over 100 µM and the TGI [35] was over 100 µM. For the same compound, the TGI [36] was over 100 µM, the TGI [37] was over 100 µM and the TGI [38] was over 100 µM. For the same compound, the TGI [39] was over 100 µM, the TGI [40] was over 100 µM and the TGI [41] was over 100 µM. For the same compound, the TGI [42] was over 100 µM, the TGI [43] was over 100 µM and the TGI [44] was over 100 µM. It also gave a TGI [45] of over 100 µM, a TGI [46] of over 100 µM and a TGI [47] of over 100 µM. The TGI [48] was over 100 µM, the TGI [50] was over 100 µM and the TGI [51] was over 100 µM. It also gave a TGI [52] of over 100 µM, a TGI [53] of over 100 µM and a TGI [54] of over 100 µM. The TGI [55] was over 100 µM and the TGI [56] was over 100 µM.

Work on `O=C1CC2CCC(C1)S2=O` (centres undefined) yielded a TGI [1] of over 100 µM, a TGI [3] of over 100 µM and a TGI [5] of over 100 µM. It also gave a TGI [6] of over 100 µM, a TGI [7] of over 100 µM and a TGI [8] of over 100 µM. The TGI [9] was over 100 µM, the TGI [10] was over 100 µM and the TGI [11] was over 100 µM. The TGI [12] was over 100 µM, the TGI [13] was over 100 µM and the TGI [14] was over 100 µM. The TGI [15] was over 100 µM, the TGI [16] was over 100 µM and the TGI [17] was over 100 µM. It also gave a TGI [18] of over 100 µM, a TGI [19] of over 100 µM and a TGI [20] of over 100 µM. It also gave a TGI [21] of over 100 µM, a TGI [22] of over 100 µM and a TGI [23] of over 100 µM. The TGI [57] was over 100 µM, the TGI [24] was over 100 µM and the TGI [25] was over 100 µM. It also gave a TGI [26] of over 100 µM, a TGI [27] of over 100 µM and a TGI [28] of over 100 µM. For the same compound, the TGI [29] was over 100 µM, the TGI [30] was over 100 µM and the TGI [31] was over 100 µM. For the same compound, the TGI [32] was over 100 µM, the TGI [33] was over 100 µM and the TGI [34] was over 100 µM. It also gave a TGI [58] of over 100 µM, a TGI [35] of over 100 µM and a TGI [36] of over 100 µM. For the same compound, the TGI [37] was over 100 µM, the TGI [38] was over 100 µM and the TGI [39] was over 100 µM. It also gave a TGI [40] of over 100 µM, a TGI [41] of over 100 µM and a TGI [42] of over 100 µM. It also gave a TGI [43] of over 100 µM, a TGI [44] of over 100 µM and a TGI [45] of over 100 µM. It also gave a TGI [46] of over 100 µM, a TGI [47] of over 100 µM and a TGI [48] of over 100 µM. The TGI [49] was over 100 µM, the TGI [50] was over 100 µM and the TGI [51] was over 100 µM. The TGI [52] was over 100 µM, the TGI [53] was over 100 µM and the TGI [54] was over 100 µM. It also gave a TGI [55] of over 100 µM and a TGI [56] of over 100 µM.

In the case of `Oc1ccc(Cc2cc(Cl)cc(Cl)c2O)cc1Cl`, the TGI [1] is reported as 43 µM, the TGI [2] is reported as 33.8 µM and the TGI [3] is reported as 41.3 µM. The TGI [4] was 31.2 µM, the TGI [5] was 33.4 µM and the TGI [6] was 51.5 µM. The TGI [8] was 35 µM, the TGI [9] was 24.4 µM and the TGI [10] was 40.2 µM. The TGI [12] was 37.2 µM, the TGI [13] was 35.2 µM and the TGI [14] was 3.36 µM. It also gave a TGI [15] of 37.3 µM, a TGI [16] of 33.9 µM and a TGI [17] of 37.2 µM. The TGI [18] was 43.9 µM, the TGI [19] was 34.1 µM and the TGI [20] was 37.6 µM. For the same compound, the TGI [21] was 49.6 µM, the TGI [22] was 31.4 µM and the TGI [23] was 34 µM. It also gave a TGI [57] of 30.9 µM, a TGI [24] of 32.5 µM and a TGI [25] of 34.3 µM. The TGI [26] was 27.1 µM, the TGI [27] was 22.4 µM and the TGI [28] was 55.6 µM. The TGI [29] was 40.2 µM, the TGI [30] was 32.3 µM and the TGI [31] was 32.4 µM. For the same compound, the TGI [32] was 31.6 µM, the TGI [33] was 38.6 µM and the TGI [34] was 36.6 µM. It also gave a TGI [58] of 58.3 µM, a TGI [59] of 38.9 µM and a TGI [35] of 36.3 µM. For the same compound, the TGI [36] was 33.1 µM, the TGI [37] was 48.4 µM and the TGI [38] was 28.8 µM. For the same compound, the TGI [39] was 31 µM, the TGI [40] was 39.6 µM and the TGI [41] was 34.3 µM. For the same compound, the TGI [42] was 29.7 µM, the TGI [43] was 32.9 µM and the TGI [44] was 32.1 µM. It also gave a TGI [45] of 60.5 µM, a TGI [46] of 30.2 µM and a TGI [47] of 33.7 µM. The TGI [49] was 47.2 µM, the TGI [50] was 41.2 µM and the TGI [51] was 44.5 µM. The TGI [52] was 30.6 µM, the TGI [53] was 36.2 µM and the TGI [54] was 30.4 µM. The TGI [55] was 27.9 µM and the TGI [56] was 31 µM.
